Measurements: patent US20100016331A1, “NOVEL COMPOUNDS” (priority 2006, published 2010)

Experiments:
[1] = system: NFkB Activity; experiment: Glucocorticoid Mediated Transrepression of NFkB Activity (A549 cells, NFkB dependent ELAM promoter, secreted placental alkaline phosphatase reporter, TNFα stimulated); format: cell-based; details: Human A549 lung epithelial cells, 3 ng/ml human recombinant TNFα, 16 hr; read-out: pEC50, transrepression of NFkB activity (converted)
Excerpt: Glucocorticoid Mediated Transrepression of NFkB Activity
Human A549 lung epithelial cells were engineered to contain a secreted placental alkaline phosphatase gene under the control of the distal region of the NFkB dependent ELAM promoter as previously described in Ray, K. P., Farrow, S., Daly, M., Talabot, F. and Searle, N. “Induction of the E-selectin promoter by interleukin 1 and tumour necrosis factor alpha, andinhibition by glucocorticoids” Biochemical Journal (1997) 328: 707-15.
Compounds were solvated and dilutedin DMSO, and transferred directly into assay plates such that the final concentration of DMSO was 0.7%. Following the addition of cells (40K per well), plates were incubated for 1 hr prior to the addition of 3 ng/ml human recombinant TNFα. Following continued incubation for 16 hr, alkaline phosphatase activity was determined by measuring the change in optical density at 405 nm with time following the addition of 0.7 volumes of assay buffer (1 mg/ml p-nitrophenylphosphate dissolvedin 1M diethanolamine, 0.28M NaCl, 0.5 mM MgCl2). Dose response curves were constructed from which EC50 values were estimated.

[2] = target: T1, glucocorticoid receptor (Homo sapiens, UniProt P04150); experiment: Glucocorticoid Receptor Binding Assay (fluorescence polarisation, competition with Alexa 555 labelled dexamethasone derivative); details: displacement of fluorescent dexamethasone, partially purified full length glucocorticoid receptor, 2 hours at room temperature; read-out: glucocorticoid binding pIC50 (converted)
T1 construct: a partially purified full length glucocorticoid receptor were added to the plates
T1 sequence (P04150 1-777): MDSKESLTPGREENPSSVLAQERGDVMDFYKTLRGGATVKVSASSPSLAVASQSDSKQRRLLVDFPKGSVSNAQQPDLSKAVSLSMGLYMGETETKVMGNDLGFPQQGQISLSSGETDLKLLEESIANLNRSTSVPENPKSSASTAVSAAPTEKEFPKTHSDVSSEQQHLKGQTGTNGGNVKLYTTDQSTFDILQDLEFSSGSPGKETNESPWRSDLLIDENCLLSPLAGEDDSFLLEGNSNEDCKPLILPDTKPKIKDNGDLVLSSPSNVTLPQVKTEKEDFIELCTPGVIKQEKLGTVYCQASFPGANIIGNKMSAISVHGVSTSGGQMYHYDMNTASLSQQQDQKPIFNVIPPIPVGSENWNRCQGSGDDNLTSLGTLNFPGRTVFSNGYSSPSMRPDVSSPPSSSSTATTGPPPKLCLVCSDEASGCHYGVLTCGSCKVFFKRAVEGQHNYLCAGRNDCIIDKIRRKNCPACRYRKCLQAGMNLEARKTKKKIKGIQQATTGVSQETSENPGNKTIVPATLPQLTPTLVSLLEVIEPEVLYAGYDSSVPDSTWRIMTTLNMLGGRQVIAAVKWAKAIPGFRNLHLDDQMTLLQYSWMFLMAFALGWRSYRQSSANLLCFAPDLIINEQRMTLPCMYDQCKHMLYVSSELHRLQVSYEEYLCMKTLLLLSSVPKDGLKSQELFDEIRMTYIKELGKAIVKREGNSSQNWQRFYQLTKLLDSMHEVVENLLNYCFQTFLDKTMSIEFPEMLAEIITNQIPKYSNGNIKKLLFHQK
Experimental: Glucocorticoid Receptor Binding Assay
The ability of compounds to bind to the glucocorticoid receptor was determined by assessing their ability to compete with an Alexa 555 fluorescently-labelled dexamethasone derivative. Compounds were solvated and dilutedin DMSO, and transferred directly into assay plates. Fluorescent dexamethasone and a partially purified full length glucocorticoid receptor were added to the plates, together with buffer components to stabilise the GR protein (including stabilisation peptide (Panvera catalogue number P2815)) andincubated at room temperature for 2 hours in the dark. Binding of each compound was assessed by analysing the displacement of fluorescent ligand by measuring the decrease in fluorescence polarisation signal from the mixture.

EC50 [1]: < 10 nM
IC50 [2]: < 316 nM
Compound: COc1ccc(F)cc1C(C)(C)CC(O)(CNc1cc(C)cc2c1cnn2-c1cccc(C(=O)N[C@H]2CCOC2=O)c1)C(F)(F)F (single isomer, unassigned) [Example 21-A]
